Source: patent publication US20020015942A1, “Method for cancer screening” (priority 1996, published 2002)

Columns and labels:
A10 cells [1] = test: Frequency of endoapoptotic bodies after incubation with cytochalasin B; format: cell-based, Rat; settings: 48 h, 2 μg/ml in culture medium
A10 cells [2] = system: A10 cells
Method: A10 cells were stained with acridine orange at different times after exposure to hydrogen peroxide (0.2 mM) and at least 500 cells were scored at each time interval to obtain the above graph. Lines 1-4 represent the frequency of apoptotic nuclei having characteristic fluorescence patterns.
Acridine orange and DAPI staining: Cells grown on glass coverslips were stained for 3-4 minutes in 100 μg/ml acridine orange (Sigma Chemicals Ltd) dissolved in HBSS; coverslips were rinsed briefly in HBSS and mounted in HBSS [19]. Cells were examined immediately in a Zeiss Axioskop fluorescence microscope equipped with filter #9 and epi-illumination. Double stranded DNA fluoresces green while single-stranded RNA and DNA fluoresce red after staining with acridine orange. In most of the experiments, endoapoptosis was scored by the presence of the endoapoptotic nuclei (mini cells) in very early (bright green fluorescence), mid phase (red fluorescence), late phase (no specific fluorescence) or the presence of a ‘ghost’ with no nuclear matrix, with or without fragmentation of the mini cells.

A10 cells [3] = settings: hydrogen peroxide-induced apoptotic cells
Method: Electron microscopy: For studying endoapoptosis in transformed foci, NIH3T3 cells were grown on Thermanox plastic coverslips and the cells were processed as monolayer by fixation with 2% glutaraldehyde in 0.1 M cacodylate buffer, pH 7.3, overnight at 5° C., and post-fixed with 1% osmium tetroxide acid. Cells were in block stained overnight in 0.5% aqueous uranyl acetate, dehydrated in acetone and embedded in Epon resin. Thin sections were cut, stained with uranyl acetate and lead citrate and viewed in a Philips 300 electron microscope. In some cases the monolayer of cells were scraped with rubber policeman after fixation and pelleted and processed for sectioning as above.

[4] = 0.02 mM hydrogen peroxide, acridine orange

C=C1[C@@H](C)[C@H]2[C@H](Cc3ccccc3)NC(=O)[C@]23OC(=O)/C=C/[C@H](O)CCC[C@@H](C)C/C=C/[C@H]3[C@@H]1O [cytochalasin B]
effect on frequency of endoapoptotic bodies (A10 cells [1]): did not reduce the frequency of endoapoptotic bodies

OO [hydrogen peroxide]
induction of classic apoptosis (A10 cells [2]; 0.02 mM hydrogen peroxide in the culture medium, followed over 24 hours): classic apoptosis was induced
persistence of red nuclear fluorescence (A10 cells [2]; [4]): 3 to 6 h
time after apoptotic death until nuclei displayed red fluorescence (A10 cells [2]; [4]): 2 to 3 h
temporal changes in nuclear fluorescence pattern compared with 0.2 mM (A10 cells [2]; 0.1 mM hydrogen peroxide, acridine orange): induced similar changes with a 24 h delay
nuclear changes in transmission electron microscopy (A10 cells [3]): typical apoptotic changes in the nucleus such as chromatin marginization and condensation
